Test results from patent publication US4956357A (priority 1984, dated 1990).
Converted amounts (≈) assume the structure as drawn.

Tests used:
[1] = cited from earlier work
human androgen receptor = system: human androgen receptor
Text: It is also believed that an androgen-action,rather than an estrogen action, acts to prevent breast enlargement.

gynecomastia [2] = conditions: alcoholic solution applied to the skin; cited from earlier work
LH [3] = assay: 24-hour urinary LH; assay type: in vivo, human; conditions: after 1 week of treatment; before 13.0±1.3
Procedure: (§1) The patients were given 200 mg DHT-hep in sesame oil intramuscularly. […] Subsequent testing was at 2, 3 and 4 weeks, and then just prior to each dose of DHT-hep. […] In two boys, the dose of DHT-hep was increased to 400 mg. Treatment lasted 16 weeks. The patients were examined before each injection of DHT-hep and at two months and six months after therapy. Patients' unpaired, or when appropriate, paired tests were used to determine significant differences (p less than 0.05). Results were all expressed as mean±Standard Error.

FSH [4] = assay: 24-hour urinary FSH; assay type: in vivo, human; conditions: after 1 week of treatment; before 8.4±0.8
Procedure: as §1

estradiol = assay: Plasma estradiol after DHT-hep; assay type: in vivo, human; conditions: for mean estradiol level: before 23.8±3.2
Procedure: (§2) Four pubertal boys, ages 14-16 years with gynecomastia which had lasted for more than 16 months and who all had breast diameters of more than 4 cm were studied. Their breast diameters ranged from 4.0 to 7.3 cm and breast areas from 13.5 to 41.4 cm^2 with mean breast area (±SEM) 24.3±4.1 cm^2.
as §1

LH [5] = assay: Plasma LH after DHT-hep; assay type: in vivo, human
Procedure: as §2, §1

human estrogen receptor = assay: Binding to estrogen receptor; conditions: heptanoate ester
FSH [6] = assay: Plasma FSH after DHT-hep; assay type: in vivo, human; conditions: for mean plasma FSH: before 190.5±50.7
Procedure: as §2, §1

[7] = Plasma DHT after intramuscular DHT-hep; assay type: in vivo, human
Procedure: as §2, §1

Solubility in sesame oil = assay type: physicochemical; conditions: organic solvent or mixture, 37° C., limit of solubility
Procedure: (This was the limit of solubility of DHT-hep in sesame oil at 37° C. The warm sesame oil mixture was filtered in a laminar flow hood through a 0.20 micron filter into sterile injection vials. The vials were sealed, tested for sterility and pyroqens, and stored at room temperature.

testosterone = assay: Plasma testosterone after DHT-hep; assay type: in vivo, human; conditions: for mean plasma testosterone: before 283.8±87.5
Procedure: as §2, §1

male external genitalia = assay: Use of DHT-hep as an androgen (development of male external genitalia); assay type: in vivo, human
Text: DHT-hep was given to two patients for the purpose of stimulating development of the male external genitalia. One was a person with hypogonadotrophic hypogonadism. […] The second patient was a child in early puberty with qynecomastia.

gynecomastia [8] = assay: Treatment of gynecomastia in pubertal boys (breast diameter and area); assay type: in vivo, human
Procedure: as §2, §1

gonadotropin = conditions: in vivo; cited from earlier work
gynecomastia [9] = conditions: treatment of gynecomastia; cited from earlier work
[10] = another set of tests, 10 adolescent patients
[11] = injections every two to three weeks
[12] = mean ± SE, two months after therapy
[13] = subject four, 200 mg every 3 wks, 2 mo. post treatment
[14] = subject one, 400 mg every 3 wks, 2 mo. post treatment
[15] = subject three, 200 mg every 2 wks, 2 mo. post treatment
[16] = subject two, 400 mg every 3 wks, 2 mo. post treatment
[17] = child in early puberty with gynecomastia, 4 months
[18] = person, 200 mg/month i.m., 6 months

## C[C@]12CCC(=O)C[C@@H]1CC[C@@H]1[C@@H]2CC[C@]2(C)[C@@H](O)CC[C@@H]12 [DHT, dihydrotestosterone]
[1]; oral
  oral stability: destroyed before reaching the circulatory system
[1]; parenteral
  half-life: very short half-life
Human androgen receptor
  binding to human androgen receptor: high affinity
Gynecomastia [2]
  plasma DHT levels (systemic absorption): elevations in its plasma levels

## CCCCCCC(=O)O[C@H]1CC[C@H]2[C@@H]3CC[C@H]4CC(=O)CC[C@]4(C)[C@H]3CC[C@]12C [DHT-hep, dihydrotestosterone heptanoate]
LH [3]
  24-hour urinary LH: 7.4±3 IU/day
FSH [4]
  24-hour urinary FSH: 2.9±0.1 IU/day
estradiol; DHT-hep i.m., four boys
  plasma estradiol change: statistically significant decreases
estradiol; [10]
  plasma estradiol change: reduction
estradiol; injection, general statement
  Estradiol: suppression
estradiol; [11]
  maintenance of estradiol suppression: maintained
estradiol; mean ± SE, 16 weeks
  mean estradiol level: 12.8 ± 1.6 pg/mL
estradiol; [12]
  plasma estradiol: 18.8 ± 2.5 pg/mL
estradiol; mean ± SE, two weeks
  mean estradiol level: 10.8 ± 0.8 pg/mL
estradiol; post injection, all subjects
  time of maximal suppression of estradiol: two
estradiol; [13]
  Estradiol: 22 pg/mL
estradiol; subject four, 200 mg every 3 wks, after 16 wks treatment, before 30
  Estradiol: < 10 pg/mL
estradiol; [14]
  Estradiol: 12 pg/mL
estradiol; subject one, 400 mg every 3 wks, after 16 wks treatment, before 16
  Estradiol: < 10 pg/mL
estradiol; [15]
  Estradiol: 18 pg/mL
estradiol; subject three, 200 mg every 2 wks, after 16 wks treatment, before 28
  Estradiol: 15 pg/mL
estradiol; [16]
  Estradiol: 23 pg/mL
estradiol; subject two, 400 mg every 3 wks, after 16 wks treatment, before 21
  Estradiol: 16 pg/mL
estradiol; two of the four boys, LH and testosterone suppressed
  residual estradiol levels: significant estradiol levels persisted
estradiol; two subjects, 200 mg dose
  estradiol suppression at 200 mg: not adequately suppressed
LH [5]; [10]
  plasma LH change: reduction
LH [5]; [17]
  plasma LH: suppressed
LH [5]; injection, general statement
  LH: suppression
LH [5]; plasma LH low before treatment in three patients
  further suppression of plasma LH: not statistically significant
LH [5]; [13]
  LH: 14 ng/mL
LH [5]; subject four, 200 mg every 3 wks, after 16 wks treatment, before 25
  LH: < 11 ng/mL
LH [5]; [14]
  LH: < 11 ng/mL
LH [5]; subject one, 400 mg every 3 wks, after 16 wks treatment, before less than 11
  LH: < 11 ng/mL
LH [5]; [15]
  LH: 27 ng/mL
LH [5]; subject three, 200 mg every 2 wks, after 16 wks treatment, before less than 11
  LH: < 11 ng/mL
LH [5]; [16]
  LH: 19 ng/mL
LH [5]; subject two, 400 mg every 3 wks, after 16 wks treatment, before 15
  LH: < 11 ng/mL
Human estrogen receptor
  binding to human estrogen receptor: not binding tightly
FSH [6]; DHT-hep i.m., four boys
  plasma FSH change: statistically significant decreases
FSH [6]; [10]
  plasma FSH change: reduction
FSH [6]; injection, general statement
  FSH: suppression
FSH [6]; mean ± SE, 16 weeks
  mean plasma FSH: 40.3 ± 7.3 ng/mL
FSH [6]; [12]
  plasma FSH: 121.5 ± 17.4 ng/mL
FSH [6]; mean ± SE, two weeks
  mean plasma FSH: 58.8 ± 18.5 ng/mL
FSH [6]; [13]
  FSH: 150 ng/mL
FSH [6]; subject four, 200 mg every 3 wks, after 16 wks treatment, before 334
  FSH: < 27 ng/mL
FSH [6]; [14]
  FSH: 73 ng/mL
FSH [6]; subject one, 400 mg every 3 wks, after 16 wks treatment, before 96
  FSH: 34 ng/mL
FSH [6]; [15]
  FSH: 120 ng/mL
FSH [6]; subject three, 200 mg every 2 wks, after 16 wks treatment, before 175
  FSH: 61 ng/mL
FSH [6]; [16]
  FSH: 143 ng/mL
FSH [6]; subject two, 400 mg every 3 wks, after 16 wks treatment, before 157
  FSH: 39 ng/mL
[7]; injection, general statement
  DHT levels: elevation
[7]; one week after injection of 200 mg DHT-hep
  increase in plasma DHT: 5-8 fold
Solubility in sesame oil
  solubility: 190 mg/mL (≈ 472 mM)
testosterone; DHT-hep i.m., four boys
  plasma testosterone change: statistically significant decreases
testosterone; [10]
  plasma testosterone change: reduction
testosterone; [17]
  plasma testosterone: suppressed
testosterone; injection, general statement
  Testosterone: suppression
testosterone; [11]
  maintenance of testosterone suppression: maintained
testosterone; mean ± SE, 16 weeks
  mean plasma testosterone: 33.8 ± 3.2 ng/dL
testosterone; [12]
  plasma testosterone: 214.9 ± 34.8 ng/dL
testosterone; mean ± SE, two weeks
  mean plasma testosterone: 29.5 ± 3.3 ng/dL
testosterone; post injection
  time of rebound of testosterone to pretreatment levels: four
testosterone; post injection, all subjects
  time of maximal suppression of testosterone: two
testosterone; [13]
  Testosterone: 297 ng/dL
testosterone; subject four, 200 mg every 3 wks, after 16 wks treatment, before 517
  Testosterone: 40 ng/dL
testosterone; [14]
  Testosterone: 178 ng/dL
testosterone; subject one, 400 mg every 3 wks, after 16 wks treatment, before 129
  Testosterone: < 25 ng/dL
testosterone; [15]
  Testosterone: 244 ng/dL
testosterone; subject three, 200 mg every 2 wks, after 16 wks treatment, before 317
  Testosterone: 34 ng/dL
testosterone; [16]
  Testosterone: 140 ng/dL
testosterone; subject two, 400 mg every 3 wks, after 16 wks treatment, before 174
  Testosterone: 36 ng/dL
Male external genitalia; [17]
  penile length change: penile length increased significantly
  pubic and auxiliary hair: pubic and auxiliary hair increased
Male external genitalia; general statement
  androgenic effects: enlargement of the male genitalia, growth of pubic hair, growth of facial hair, and increase in height and weight
Male external genitalia; [18]
  erections and ejaculations: erections and ejaculations were reported
  muscle mass: significant increase in muscle mass
  pubic hair: Pubic hair increased
Male external genitalia; person, hypogonadotrophic hypogonadism, 200 mg/month i.m., 6 months, from 1.5
  penile diameter: 2.5 cm
Male external genitalia; person, hypogonadotrophic hypogonadism, 200 mg/month i.m., 6 months, from 4 cm
  penile length: 8 cm
Gynecomastia [8]; [10]
  breast size change: significant reduction in breast size
Gynecomastia [8]; intramuscular injections, four adolescent boys
  regression of breast tissue: regression of breast tissue in all four adolescent boys
Gynecomastia [8]; mean ± SE, four boys, after 16 weeks of treatment, before 24.3±4.1, p less than 0.002
  mean breast area: 7.0±1.5 cm^2
Gynecomastia [8]; patient four, followed for nine months
  increase in breast size on follow-up: no increase in breast size
Gynecomastia [8]; range of four boys, 16 weeks
  decrease in breast area: 66.6 to 77.5%
Gynecomastia [8]; six to nine months after therapy was discontinued
  regrowth of breast tissue: no regrowth of breast tissue
Gynecomastia [8]; [13]
  % Decrease in Breast Area: 70.1%
  Breast Area: 4.0 cm^2
  Breast Diameter: 2.3 cm
Gynecomastia [8]; subject four, 200 mg every 3 wks, after 16 wks treatment
  % Decrease in Breast Area: 70.1%
Gynecomastia [8]; subject four, 200 mg every 3 wks, after 16 wks treatment, before 4.0
  Breast Diameter: 2.3 cm
Gynecomastia [8]; subject four, 200 mg every 3 wks, after 16 wks treatment, before 13.5
  Breast Area: 4.0 cm^2
Gynecomastia [8]; [14]
  % Decrease in Breast Area: 75.5%
  Breast Area: 6.0 cm^2
  Breast Diameter: 2.6 cm
Gynecomastia [8]; subject one, 400 mg every 3 wks, after 16 wks treatment
  % Decrease in Breast Area: 75.2%
Gynecomastia [8]; subject one, 400 mg every 3 wks, after 16 wks treatment, before 5.6
  Breast Diameter: 2.7 cm
Gynecomastia [8]; subject one, 400 mg every 3 wks, after 16 wks treatment, before 24.6
  Breast Area: 6.1 cm^2
Gynecomastia [8]; [15]
  % Decrease in Breast Area: 77.5%
  Breast Area: 4.0 cm^2
  Breast Diameter: 2.3 cm
Gynecomastia [8]; subject three, 200 mg every 2 wks, after 16 wks treatment
  % Decrease in Breast Area: 77.5%
Gynecomastia [8]; subject three, 200 mg every 2 wks, after 16 wks treatment, before 4.8
  Breast Diameter: 2.3 cm
Gynecomastia [8]; subject three, 200 mg every 2 wks, after 16 wks treatment, before 17.7
  Breast Area: 4.0 cm^2
Gynecomastia [8]; [16]
  % Decrease in Breast Area: 69.9%
  Breast Area: 12.6 cm^2
  Breast Diameter: 3.3 cm
Gynecomastia [8]; subject two, 400 mg every 3 wks, after 16 wks treatment
  % Decrease in Breast Area: 66.6%
Gynecomastia [8]; subject two, 400 mg every 3 wks, after 16 wks treatment, before 7.3
  Breast Diameter: 4.2 cm
Gynecomastia [8]; subject two, 400 mg every 3 wks, after 16 wks treatment, before 41.4
  Breast Area: 13.9 cm^2
Gynecomastia [8]; two and six months after therapy was discontinued
  regrowth of breast tissue: No regrowth of breast tissue occurred in any subject

## CCC(=O)O[C@H]1CC[C@H]2[C@@H]3CC[C@H]4CC(=O)CC[C@]4(C)[C@H]3CC[C@]12C [Dihydrotestosterone propionate]
gonadotropin
  duration of action: one-to three
  gonadotropin suppression: not effective in gonadotropin suppression

## C[C@]12CC[C@H]3[C@@H](CCC4=CC(=O)CC[C@@]43C)[C@@H]1CC[C@@H]2O [testosterone]
Gynecomastia [9]
  breast size: increased breast size
